Experimental findings from patent US9669003B2, “Use of flavone and flavanone derivatives in preparation of sedative and hypnotic drugs” (priority 2012, dated 2017) are described below.

Type in all cases: in vivo
Assay [1] relates to Kunming mice. The assay can be described thus: Influence on autonomic activity of normal mice (ZIL-2 mice autonomic activity meter, counts within 10 min). To be noted: intragastric, x ± s, n = 10; for Times of activities in 1 h after drug administration/10 min: 1 h after administration; for Times of activities in 2 h after drug administration/10 min: 2 h after administration; for Times of activities in 24 h after drug administration/10 min: 24 h after administration. Put shortly: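 Kunming mice (10 per group, half each sex) were dosed at 25, 50 or 100 mg/kg in 0.5% CMC-Na. Spontaneous activity counts over 10 min were recorded at 1 h, 2 h and 24 h post-dose. Groups were compared by ANOVA with Dunnett's test after Levene's check.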

Assay [2] deals with Kunming mice. Description: Influence on hypnosis effect with pentobarbital sodium doses below the threshold (25 mg/kg i.p.). To be noted: pentobarbital sodium 25 mg/kg i.p. 60 min later, sleep observed in 30 min, n = 10. In a few lines: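 Kunming mice (10 per group, half female) given single oral doses of 25, 50 or 100 mg/kg in 0.5% CMC-Na; 60 min later pentobarbital sodium 25 mg/kg i.p. Sleep (righting reflex lost >1 min) scored within 30 min as percentage asleep, χ2 test.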

Assay [3] has as its system Kunming mice. The assay can be described thus: Influence on hypnosis effect with pentobarbital sodium doses at the threshold (50 mg/kg i.p.). The note with it: pentobarbital sodium 50 mg/kg i.p. 60 min later, x ± s, n = 10. Put shortly: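 Kunming mice (10/group, half each sex) received compound in 0.5% CMC-Na intragastrically at 25, 50 or 100 mg/kg; 60 min later given 0.3% sodium pentobarbital 50 mg/kg i.p. Sleep latency and duration recorded by loss of righting reflex over 1 min; ANOVA and χ2 for sleep incidence.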

[4] abbreviates: test drug 25 mg/kg intragastric single dose.
Where [5] appears, read: test drug 50 mg/kg intragastric single dose.
Setting [6] is: test drug 100 mg/kg intragastric single dose.
The mark [7] stands for this setting: 25 mg/kg intragastric single dose.
The mark [8] stands for this setting: 50 mg/kg intragastric single dose.
The mark [9] stands for this setting: 100 mg/kg intragastric single dose.

Marks after values point to notes of the source that are not given here.

Take `CC=Cc1cc(Cc2ccccc2)c2c(=O)cc(-c3cc(C#N)c([N+](=O)[O-])c(Cc4ccccc4)c3)oc2c1` [Example 25]: the “Times of activities in 1 h after drug administration/10 min” value (from here on “Times of activities in 1 h”) is recorded as 286.3 ± 48.9 /10 min in the assay on Kunming mice [1] (25 mg/kg), 185.3 ± 51.1 /10 min with Kunming mice [1] (50 mg/kg) and 135.6 ± 39.4 /10 min with Kunming mice [1] (100 mg/kg). The “Times of activities in 2 h after drug administration/10 min” value (“Times of activities in 2 h” for short) in the assay on Kunming mice [1] (25 mg/kg) is given as 279.9 ± 41.7 /10 min; in the assay on Kunming mice [1] (50 mg/kg) it was 190.2 ± 56.9 /10 min; in the assay on Kunming mice [1] (100 mg/kg), 136.8 ± 47.9 /10 min. The figures for the “Times of activities in 24 h after drug administration/10 min” value (“Times of activities in 24 h” for short) in the assay with Kunming mice [1] (25 mg/kg), with Kunming mice [1] (50 mg/kg) and in the assay with Kunming mice [1] (100 mg/kg) were 295.2 ± 82.3 /10 min, 296.3 ± 91.1 /10 min and 281.6 ± 93.7 /10 min, respectively. Besides, the “Number of sleeping animals” value is recorded as 4 in the assay on Kunming mice [2] (setting [4]), 7 in the assay with Kunming mice [2] (setting [5]) and 7 in the assay with Kunming mice [2] (setting [6]). Besides, the “rate of sleeping (%)” value in the assay on Kunming mice [2] (setting [4]) is 40* %; in the assay with Kunming mice [2] (setting [5]) it was 70** %; with Kunming mice [2] (setting [6]), 70** %. For the same compound, the duration of sleep with Kunming mice [3] (setting [7]) is on record as 41.02 ± 18.97 min; with Kunming mice [3] (setting [8]), 62.87 ± 28.45 min; in the assay on Kunming mice [3] (setting [9]), 70.23 ± 23.65 min. Moreover, the figures for the time to sleep in the assay on Kunming mice [3] (setting [7]), in the assay on Kunming mice [3] (setting [8]) and with Kunming mice [3] (setting [9]) were 4.41 ± 1.67 min, 3.84 ± 1.31 min and 3.05 ± 1.20 min, respectively.

Consider `COc1cc(C2Oc3c(OC)c(OC)c(OC)c(O)c3C(=O)C2OC)c(OC)c(OC)c1OC` (stereo not drawn) [Example 68, 5-hydroxyl-3,6,7,8,3′,4′,5′,6′-octa methoxyl-flavanone], for which the “Times of activities in 1 h” value with Kunming mice [1] (25 mg/kg) was 287.3 ± 47.9 /10 min; in the assay with Kunming mice [1] (50 mg/kg), 248.2 ± 57.4 /10 min; in the assay with Kunming mice [1] (100 mg/kg), 128.2 ± 30.9 /10 min. For the same compound, the “Times of activities in 2 h” value in the assay on Kunming mice [1] (25 mg/kg) was 267.7 ± 40.4 /10 min; with Kunming mice [1] (50 mg/kg) it was 243.2 ± 54.6 /10 min; with Kunming mice [1] (100 mg/kg) it was 241.7 ± 40.9 /10 min. Moreover, the results for the “Times of activities in 24 h” value in the assay with Kunming mice [1] (25 mg/kg), with Kunming mice [1] (50 mg/kg) and in the assay on Kunming mice [1] (100 mg/kg) were 322.9 ± 76.0 /10 min, 319.6 ± 75.9 /10 min and 298.1 ± 80.2 /10 min, respectively. The “Number of sleeping animals” value is 3 in the assay on Kunming mice [2] (setting [4]), 4 with Kunming mice [2] (setting [5]) and 6 with Kunming mice [2] (setting [6]). For the same compound, the “rate of sleeping (%)” value with Kunming mice [2] (setting [4]) is 30%; with Kunming mice [2] (setting [5]) it was 40* %; in the assay with Kunming mice [2] (setting [6]), 60** %. Besides, the values for the duration of sleep in the assay on Kunming mice [3] (setting [7]), in the assay on Kunming mice [3] (setting [8]) and in the assay with Kunming mice [3] (setting [9]) were 20.69 ± 25.22 min, 29.78 ± 28.77 min and 64.55 ± 47.91 min, respectively. Further, the time to sleep in the assay with Kunming mice [3] (setting [7]) was 5.36 ± 2.23 min; in the assay with Kunming mice [3] (setting [8]), 5.09 ± 2.44 min; with Kunming mice [3] (setting [9]) it was 3.31 ± 1.14 min.

In the case of `C=Cc1cc(C(N)=O)cc2oc(-c3ccc(N)c(C4CCSC4)c3)cc(=O)c12` (stereo not drawn) [Example 38], the results for the “Times of activities in 1 h” value in the assay on Kunming mice [1] (25 mg/kg), in the assay with Kunming mice [1] (50 mg/kg) and in the assay with Kunming mice [1] (100 mg/kg) were 312.9 ± 40.6 /10 min, 259.2 ± 54.6 /10 min and 182.7 ± 41.3 /10 min, respectively. Moreover, the entries for the “Times of activities in 2 h” value with Kunming mice [1] (25 mg/kg), with Kunming mice [1] (50 mg/kg) and in the assay on Kunming mice [1] (100 mg/kg) were 296.2 ± 34.6 /10 min, 257.1 ± 57.2 /10 min and 165.4 ± 56.2 /10 min, respectively. Besides, the “Times of activities in 24 h” value with Kunming mice [1] (25 mg/kg) is 268.9 ± 82.8 /10 min; with Kunming mice [1] (50 mg/kg) it was 279.7 ± 76.5 /10 min; in the assay with Kunming mice [1] (100 mg/kg), 324.7 ± 80.9 /10 min. Also, the results for the “Number of sleeping animals” value in the assay with Kunming mice [2] (setting [4]), in the assay with Kunming mice [2] (setting [5]) and in the assay on Kunming mice [2] (setting [6]) were 6, 8 and 9, respectively. For the same compound, the “rate of sleeping (%)” value was 60** % with Kunming mice [2] (setting [4]), 80*** % with Kunming mice [2] (setting [5]) and 90*** % in the assay with Kunming mice [2] (setting [6]). In addition, the duration of sleep in the assay on Kunming mice [3] (setting [7]) was found to be 29.67 ± 21.25 min; with Kunming mice [3] (setting [8]) it was 36.68 ± 12.30 min; in the assay with Kunming mice [3] (setting [9]) it was 52.95 ± 20.05 min. Further, the time to sleep worked out at 4.92 ± 2.48 min with Kunming mice [3] (setting [7]), 4.67 ± 1.55 min with Kunming mice [3] (setting [8]) and 3.98 ± 1.27 min in the assay with Kunming mice [3] (setting [9]).

`CCCc1cc(O)cc2c1C(=O)CC(c1ccc(-c3ccccc3)c([N+](=O)[O-])c1)O2` (stereo not drawn) [Example 70]: the “Times of activities in 1 h” value is listed as 233.5 ± 58.2 /10 min with Kunming mice [1] (25 mg/kg), 159.9 ± 45.0 /10 min with Kunming mice [1] (50 mg/kg) and 129.3 ± 41.3 /10 min in the assay on Kunming mice [1] (100 mg/kg). The “Times of activities in 2 h” value in the assay with Kunming mice [1] (25 mg/kg) is given as 227.8 ± 32.9 /10 min; with Kunming mice [1] (50 mg/kg) it was 141.0 ± 46.3 /10 min; with Kunming mice [1] (100 mg/kg), 117.8 ± 39.6 /10 min. Moreover, the figures for the “Times of activities in 24 h” value in the assay on Kunming mice [1] (25 mg/kg), in the assay with Kunming mice [1] (50 mg/kg) and in the assay with Kunming mice [1] (100 mg/kg) were 316.0 ± 66.9 /10 min, 320.9 ± 81.4 /10 min and 320.7 ± 60.9 /10 min, respectively. In addition, the “Number of sleeping animals” value in the assay on Kunming mice [2] (setting [4]) was found to be 6; in the assay with Kunming mice [2] (setting [5]), 8; with Kunming mice [2] (setting [6]), 9. In addition, the “rate of sleeping (%)” value in the assay on Kunming mice [2] (setting [4]) is reported as 60** %; in the assay on Kunming mice [2] (setting [5]) it was 80*** %; in the assay with Kunming mice [2] (setting [6]), 90*** %. Further, the duration of sleep with Kunming mice [3] (setting [7]) is reported as 47.57 ± 18.97 min; with Kunming mice [3] (setting [8]), 61.38 ± 27.39 min; in the assay with Kunming mice [3] (setting [9]), 73.09 ± 25.56 min. In addition, the figures for the time to sleep in the assay on Kunming mice [3] (setting [7]), in the assay on Kunming mice [3] (setting [8]) and with Kunming mice [3] (setting [9]) were 3.60 ± 1.69 min, 3.21 ± 1.35 min and 2.28 ± 1.13 min, respectively.

As to `COc1ccc(C2CC(=O)c3c(O)c(OC)c(OC)c(OC)c3O2)cc1` (stereo not drawn) [Example 42, 5-hydroxyl-6,7,8,4′-tetramethoxyl-flavanone], the “Times of activities in 1 h” value with Kunming mice [1] (25 mg/kg) is given as 231.2 ± 47.3 /10 min; with Kunming mice [1] (50 mg/kg), 154.5 ± 43.2 /10 min; in the assay on Kunming mice [1] (100 mg/kg), 108.5 ± 48.5 /10 min. Further, the “Times of activities in 2 h” value with Kunming mice [1] (25 mg/kg) was 233.2 ± 35.1 /10 min; with Kunming mice [1] (50 mg/kg), 145.3 ± 41.3 /10 min; in the assay on Kunming mice [1] (100 mg/kg), 104.3 ± 42.5 /10 min. The “Times of activities in 24 h” value was 313.5 ± 68.2 /10 min in the assay with Kunming mice [1] (25 mg/kg), 310.3 ± 62.5 /10 min with Kunming mice [1] (50 mg/kg) and 302.6 ± 69.3 /10 min in the assay with Kunming mice [1] (100 mg/kg). Moreover, the entries for the “Number of sleeping animals” value in the assay with Kunming mice [2] (setting [4]), in the assay with Kunming mice [2] (setting [5]) and in the assay on Kunming mice [2] (setting [6]) were 5, 8 and 9, respectively. The “rate of sleeping (%)” value with Kunming mice [2] (setting [4]) is given as 50** %; in the assay with Kunming mice [2] (setting [5]), 80*** %; with Kunming mice [2] (setting [6]), 90*** %. In addition, the duration of sleep is on record as 58.90 ± 15.38 min in the assay on Kunming mice [3] (setting [7]), 69.37 ± 20.24 min in the assay with Kunming mice [3] (setting [8]) and 78.53 ± 19.87 min in the assay with Kunming mice [3] (setting [9]). Further, the time to sleep came to 4.42 ± 1.65 min with Kunming mice [3] (setting [7]), 3.30 ± 1.32 min in the assay on Kunming mice [3] (setting [8]) and 2.26 ± 1.28 min in the assay with Kunming mice [3] (setting [9]).
